Assays:
[1] = molecular target: Serine/threonine-protein kinase WNK2 (Homo sapiens) (UniProt Q9Y3S1); assay: WNK2(h) Millipore kinase panel; settings: Compound concentration 10.0 uM
[2] = molecular target: Serine/threonine-protein kinase VRK2 (Homo sapiens) (UniProt Q86Y07); assay: VRK2(h) Millipore kinase panel; settings: Compound concentration 10.0 uM
[3] = molecular target: Adenosine receptor A1 (Homo sapiens) (UniProt P30542); assay: A1 (h) CEREP panel; settings: Compound concentration 1.0 uM
[4] = molecular target: Adenosine receptor A2a (Homo sapiens) (UniProt P29274); assay: A2A (h) CEREP panel; settings: Compound concentration 1.0 uM
[5] = molecular target: Adenosine receptor A3 (Homo sapiens) (UniProt P0DMS8); assay: A3 (h) CEREP panel; settings: Compound concentration 1.0 uM
[6] = molecular target: Adrenergic receptor alpha-1 (Homo sapiens) (UniProt P35348+P25100+P35368); assay: alpha 1 (non-selective) CEREP panel; settings: Compound concentration 1.0 uM
[7] = molecular target: Adrenergic receptor alpha-2 (Homo sapiens) (UniProt P08913+P18825+P18089); assay: alpha 2 (non-selective) CEREP panel; settings: Compound concentration 1.0 uM
[8] = molecular target: Beta-1 adrenergic receptor (Homo sapiens) (UniProt P08588); assay: beta 1 (h) CEREP panel; settings: Compound concentration 1.0 uM
[9] = molecular target: Sodium-dependent noradrenaline transporter (Homo sapiens) (UniProt P23975); assay: NE transporter (h) CEREP panel; settings: Compound concentration 1.0 uM
[10] = BZD (central) CEREP panel; settings: Compound concentration 1.0 uM
[11] = molecular target: Cholecystokinin receptor type A (Homo sapiens) (UniProt P32238); assay: CCKA (h) (CCK1) CEREP panel; settings: Compound concentration 1.0 uM
[12] = molecular target: D(1A) dopamine receptor (Homo sapiens) (UniProt P21728); assay: D1 (h) CEREP panel; settings: Compound concentration 1.0 uM
[13] = molecular target: D(2) dopamine receptor (Homo sapiens) (UniProt P14416); assay: D2 (h) CEREP panel; settings: Compound concentration 1.0 uM
[14] = molecular target: Sodium-dependent dopamine transporter (Homo sapiens) (UniProt Q01959); assay: DA transporter (h) CEREP panel; settings: Compound concentration 1.0 uM
[15] = molecular target: Endothelin-1 receptor (Homo sapiens) (UniProt P25101); assay: ETA (h) CEREP panel; settings: Compound concentration 1.0 uM
[16] = GABA (non-selective) CEREP panel; settings: Compound concentration 1.0 uM
[17] = molecular target: Galanin receptor type 2 (Homo sapiens) (UniProt O43603); assay: GAL2 (h) CEREP panel; settings: Compound concentration 1.0 uM
[18] = molecular target: C-X-C chemokine receptor type 2 (Homo sapiens) (UniProt P25025); assay: IL-8B (h) (CXCR2) CEREP panel; settings: Compound concentration 1.0 uM
[19] = molecular target: C-C chemokine receptor type 1 (Homo sapiens) (UniProt P32246); assay: CCR1 (h) CEREP panel; settings: Compound concentration 1.0 uM
[20] = molecular target: Histamine H1 receptor (Homo sapiens) (UniProt P35367); assay: H1 (h) CEREP panel; settings: Compound concentration 1.0 uM
[21] = molecular target: Histamine H2 receptor (Homo sapiens) (UniProt P25021); assay: H2 (h) CEREP panel; settings: Compound concentration 1.0 uM
[22] = molecular target: Melanocortin receptor 4 (Homo sapiens) (UniProt P32245); assay: MC4 (h) CEREP panel; settings: Compound concentration 1.0 uM
[23] = MT1 CEREP panel; settings: Compound concentration 1.0 uM
[24] = molecular target: Muscarinic acetylcholine receptor M1 (Homo sapiens) (UniProt P11229); assay: M1 (h) CEREP panel; settings: Compound concentration 1.0 uM
[25] = molecular target: Muscarinic acetylcholine receptor M2 (Homo sapiens) (UniProt P08172); assay: M2 (h) CEREP panel; settings: Compound concentration 1.0 uM
[26] = molecular target: Muscarinic acetylcholine receptor M3 (Homo sapiens) (UniProt P20309); assay: M3 (h) CEREP panel; settings: Compound concentration 1.0 uM
[27] = molecular target: Substance-K receptor (Homo sapiens) (UniProt P21452); assay: NK2 (h) CEREP panel; settings: Compound concentration 1.0 uM
[28] = molecular target: Neuromedin-K receptor (Homo sapiens) (UniProt P29371); assay: NK3 (h) CEREP panel; settings: Compound concentration 1.0 uM
[29] = molecular target: Neuropeptide Y receptor type 1 (Homo sapiens) (UniProt P25929); assay: Y1 (h) CEREP panel; settings: Compound concentration 1.0 uM
[30] = molecular target: Neuropeptide Y receptor type 2 (Homo sapiens) (UniProt P49146); assay: Y2 (h) CEREP panel; settings: Compound concentration 1.0 uM
[31] = molecular target: Neurotensin receptor type 1 (Homo sapiens) (UniProt P30989); assay: NT1 (h) (NTS1) CEREP panel; settings: Compound concentration 1.0 uM
[32] = molecular target: Delta-type opioid receptor (Homo sapiens) (UniProt P41143); assay: delta (h) CEREP panel; settings: Compound concentration 1.0 uM
[33] = molecular target: Kappa-type opioid receptor (Homo sapiens) (UniProt P41145); assay: kappa (h) CEREP panel; settings: Compound concentration 1.0 uM
[34] = molecular target: Mu-type opioid receptor (Homo sapiens) (UniProt P35372); assay: mu (h) CEREP panel; settings: Compound concentration 1.0 uM
[35] = molecular target: Nociceptin receptor (Homo sapiens) (UniProt P41146); assay: ORL1 (h) CEREP panel; settings: Compound concentration 1.0 uM
[36] = molecular target: 5-hydroxytryptamine receptor 1A (Homo sapiens) (UniProt P08908); assay: 5-HT1A (h) CEREP panel; settings: Compound concentration 1.0 uM
[37] = molecular target: 5-hydroxytryptamine receptor 1B (Homo sapiens) (UniProt P28222); assay: 5-HT1B CEREP panel; settings: Compound concentration 1.0 uM
[38] = molecular target: 5-hydroxytryptamine receptor 2A (Homo sapiens) (UniProt P28223); assay: 5-HT2A (h) CEREP panel; settings: Compound concentration 1.0 uM
[39] = molecular target: 5-hydroxytryptamine receptor 3A (Homo sapiens) (UniProt P46098); assay: 5-HT3 (h) CEREP panel; settings: Compound concentration 1.0 uM
[40] = molecular target: 5-hydroxytryptamine receptor 5A (Homo sapiens) (UniProt P47898); assay: 5-HT5A (h) (5-ht5a) CEREP panel; settings: Compound concentration 1.0 uM
[41] = molecular target: 5-hydroxytryptamine receptor 6 (Homo sapiens) (UniProt P50406); assay: 5-HT6 (h) (5-ht6) CEREP panel; settings: Compound concentration 1.0 uM
[42] = molecular target: 5-hydroxytryptamine receptor 7 (Homo sapiens) (UniProt P34969); assay: 5-HT7 (h) CEREP panel; settings: Compound concentration 1.0 uM
[43] = sst (non-selective) CEREP panel; settings: Compound concentration 1.0 uM
[44] = molecular target: Vasoactive intestinal polypeptide receptor 1 (Homo sapiens) (UniProt P32241); assay: VIP1 (h) (VPAC1) CEREP panel; settings: Compound concentration 1.0 uM
[45] = molecular target: Vasopressin V1a receptor (Homo sapiens) (UniProt P37288); assay: V1A (h) CEREP panel; settings: Compound concentration 1.0 uM
[46] = Ca2+ channel CEREP panel; settings: Compound concentration 1.0 uM
[47] = K+V channel CEREP panel; settings: Compound concentration 1.0 uM
[48] = SK+Ca channel CEREP panel; settings: Compound concentration 1.0 uM
[49] = Na+ channel (site 2) CEREP panel; settings: Compound concentration 1.0 uM
[50] = Cl- channel CEREP panel; settings: Compound concentration 1.0 uM

Measured: inhibition

Chain of Delta-type opioid receptor (Homo sapiens) (P41143 whole entry): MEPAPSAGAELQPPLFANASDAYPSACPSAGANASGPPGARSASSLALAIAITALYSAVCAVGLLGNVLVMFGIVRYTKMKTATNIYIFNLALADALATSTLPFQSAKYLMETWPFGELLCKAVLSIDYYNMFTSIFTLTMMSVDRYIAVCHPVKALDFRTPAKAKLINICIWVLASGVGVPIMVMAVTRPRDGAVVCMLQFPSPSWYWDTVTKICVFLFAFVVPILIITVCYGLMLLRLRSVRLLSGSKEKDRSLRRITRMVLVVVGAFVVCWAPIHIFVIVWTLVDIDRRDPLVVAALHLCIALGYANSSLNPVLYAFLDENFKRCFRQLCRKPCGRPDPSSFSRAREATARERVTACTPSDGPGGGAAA
Chain of Kappa-type opioid receptor (Homo sapiens) (P41145 whole entry): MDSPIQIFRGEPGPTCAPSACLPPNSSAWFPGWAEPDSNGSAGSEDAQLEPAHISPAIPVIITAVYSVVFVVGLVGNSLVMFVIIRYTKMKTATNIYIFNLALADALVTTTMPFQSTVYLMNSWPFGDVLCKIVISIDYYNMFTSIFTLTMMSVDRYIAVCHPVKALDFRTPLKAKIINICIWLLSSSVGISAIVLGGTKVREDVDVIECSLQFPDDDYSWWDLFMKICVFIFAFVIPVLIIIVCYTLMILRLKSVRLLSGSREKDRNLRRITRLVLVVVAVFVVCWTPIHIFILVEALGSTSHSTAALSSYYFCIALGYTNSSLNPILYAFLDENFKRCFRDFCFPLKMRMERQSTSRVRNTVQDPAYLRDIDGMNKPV
Chain of 5-hydroxytryptamine receptor 5A (Homo sapiens) (P47898 whole entry): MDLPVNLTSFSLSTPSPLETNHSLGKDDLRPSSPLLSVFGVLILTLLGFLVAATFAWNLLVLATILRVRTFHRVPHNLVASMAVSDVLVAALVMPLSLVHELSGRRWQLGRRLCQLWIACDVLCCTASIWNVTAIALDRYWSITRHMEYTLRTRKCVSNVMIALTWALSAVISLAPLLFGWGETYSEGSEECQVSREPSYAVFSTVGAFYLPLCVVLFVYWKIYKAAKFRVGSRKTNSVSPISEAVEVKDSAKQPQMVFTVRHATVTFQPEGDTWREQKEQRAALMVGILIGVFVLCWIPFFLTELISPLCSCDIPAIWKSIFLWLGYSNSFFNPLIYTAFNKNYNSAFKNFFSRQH
Chain of 5-hydroxytryptamine receptor 1B (Homo sapiens) (P28222 whole entry): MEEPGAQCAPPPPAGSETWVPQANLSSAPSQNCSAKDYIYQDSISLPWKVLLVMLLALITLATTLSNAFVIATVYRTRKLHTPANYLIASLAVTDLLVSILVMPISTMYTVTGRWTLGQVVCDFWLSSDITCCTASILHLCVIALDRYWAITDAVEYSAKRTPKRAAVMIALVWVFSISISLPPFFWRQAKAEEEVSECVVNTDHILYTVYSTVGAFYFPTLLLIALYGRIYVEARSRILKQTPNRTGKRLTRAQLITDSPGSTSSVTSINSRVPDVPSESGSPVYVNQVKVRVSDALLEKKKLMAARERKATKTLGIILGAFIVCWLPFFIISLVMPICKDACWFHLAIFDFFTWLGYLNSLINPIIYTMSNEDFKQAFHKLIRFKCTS
Chain of Muscarinic acetylcholine receptor M2 (Homo sapiens) (P08172 whole entry): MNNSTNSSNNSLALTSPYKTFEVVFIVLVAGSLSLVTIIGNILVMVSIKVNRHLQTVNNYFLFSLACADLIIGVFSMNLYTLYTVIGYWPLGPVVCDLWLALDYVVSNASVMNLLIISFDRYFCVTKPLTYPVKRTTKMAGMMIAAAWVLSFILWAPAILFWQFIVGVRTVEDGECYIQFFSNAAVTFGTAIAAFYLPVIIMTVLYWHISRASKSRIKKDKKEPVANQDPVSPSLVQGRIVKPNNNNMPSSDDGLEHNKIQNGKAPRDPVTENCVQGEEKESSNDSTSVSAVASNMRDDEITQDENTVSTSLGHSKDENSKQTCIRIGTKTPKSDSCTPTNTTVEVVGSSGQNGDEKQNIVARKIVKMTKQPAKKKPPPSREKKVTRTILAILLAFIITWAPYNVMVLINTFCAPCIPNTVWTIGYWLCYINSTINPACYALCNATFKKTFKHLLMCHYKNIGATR
Chain of C-X-C chemokine receptor type 2 (Homo sapiens) (P25025 whole entry): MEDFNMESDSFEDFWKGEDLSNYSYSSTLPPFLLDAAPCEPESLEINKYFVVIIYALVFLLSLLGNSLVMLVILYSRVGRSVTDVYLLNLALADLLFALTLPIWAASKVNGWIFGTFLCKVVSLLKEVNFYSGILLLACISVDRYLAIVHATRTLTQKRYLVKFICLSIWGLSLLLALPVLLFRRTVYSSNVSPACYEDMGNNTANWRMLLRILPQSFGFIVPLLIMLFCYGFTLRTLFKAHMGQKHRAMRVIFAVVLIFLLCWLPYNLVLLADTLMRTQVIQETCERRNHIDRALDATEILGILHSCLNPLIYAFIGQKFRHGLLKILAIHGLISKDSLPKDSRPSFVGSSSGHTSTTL
Chain of Nociceptin receptor (Homo sapiens) (P41146 whole entry): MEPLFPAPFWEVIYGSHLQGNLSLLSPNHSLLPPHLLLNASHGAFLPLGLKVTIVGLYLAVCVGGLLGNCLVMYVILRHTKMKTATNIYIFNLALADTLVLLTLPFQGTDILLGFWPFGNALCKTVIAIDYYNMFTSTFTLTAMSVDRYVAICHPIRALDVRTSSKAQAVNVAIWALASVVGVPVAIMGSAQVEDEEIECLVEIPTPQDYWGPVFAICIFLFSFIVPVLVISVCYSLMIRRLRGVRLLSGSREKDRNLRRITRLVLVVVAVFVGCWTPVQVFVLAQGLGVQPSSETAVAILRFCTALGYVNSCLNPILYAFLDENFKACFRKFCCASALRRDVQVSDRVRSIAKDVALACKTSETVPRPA
Chain of Substance-K receptor (Homo sapiens) (P21452 whole entry): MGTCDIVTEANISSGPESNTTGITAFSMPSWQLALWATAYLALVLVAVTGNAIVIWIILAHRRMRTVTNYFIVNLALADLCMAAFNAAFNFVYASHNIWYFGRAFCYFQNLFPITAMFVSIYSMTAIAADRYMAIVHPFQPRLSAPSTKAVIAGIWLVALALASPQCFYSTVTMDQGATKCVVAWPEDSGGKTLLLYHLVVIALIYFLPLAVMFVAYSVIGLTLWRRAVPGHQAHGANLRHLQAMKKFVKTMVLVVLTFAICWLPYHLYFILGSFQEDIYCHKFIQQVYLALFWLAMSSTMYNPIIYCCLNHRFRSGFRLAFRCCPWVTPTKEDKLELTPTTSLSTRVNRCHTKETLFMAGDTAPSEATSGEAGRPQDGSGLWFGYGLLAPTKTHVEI
Chain of Neurotensin receptor type 1 (Homo sapiens) (P30989 whole entry): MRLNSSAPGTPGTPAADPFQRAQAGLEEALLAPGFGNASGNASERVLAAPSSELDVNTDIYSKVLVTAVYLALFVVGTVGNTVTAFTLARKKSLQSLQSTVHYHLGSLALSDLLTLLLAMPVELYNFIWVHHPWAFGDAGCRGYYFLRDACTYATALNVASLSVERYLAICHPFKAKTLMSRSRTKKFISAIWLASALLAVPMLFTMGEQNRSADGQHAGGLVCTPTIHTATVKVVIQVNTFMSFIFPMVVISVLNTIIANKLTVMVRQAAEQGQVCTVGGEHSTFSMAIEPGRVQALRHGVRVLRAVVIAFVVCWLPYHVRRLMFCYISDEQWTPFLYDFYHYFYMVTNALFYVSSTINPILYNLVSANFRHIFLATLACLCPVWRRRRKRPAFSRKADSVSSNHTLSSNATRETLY
Chain of Histamine H1 receptor (Homo sapiens) (P35367 whole entry): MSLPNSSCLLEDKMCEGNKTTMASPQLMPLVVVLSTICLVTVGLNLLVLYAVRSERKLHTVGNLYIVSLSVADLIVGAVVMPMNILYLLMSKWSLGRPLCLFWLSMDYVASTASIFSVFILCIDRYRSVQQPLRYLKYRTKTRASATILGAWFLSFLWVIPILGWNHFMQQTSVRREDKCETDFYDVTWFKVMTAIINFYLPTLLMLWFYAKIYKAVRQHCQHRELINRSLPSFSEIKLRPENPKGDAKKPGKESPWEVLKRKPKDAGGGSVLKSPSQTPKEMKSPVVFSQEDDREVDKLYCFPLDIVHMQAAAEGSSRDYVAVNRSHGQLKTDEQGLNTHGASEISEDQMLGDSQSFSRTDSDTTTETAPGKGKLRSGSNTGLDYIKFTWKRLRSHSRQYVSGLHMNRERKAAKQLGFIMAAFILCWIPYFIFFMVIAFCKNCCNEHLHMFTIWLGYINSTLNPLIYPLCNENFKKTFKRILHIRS
Chain of C-C chemokine receptor type 1 (Homo sapiens) (P32246 whole entry): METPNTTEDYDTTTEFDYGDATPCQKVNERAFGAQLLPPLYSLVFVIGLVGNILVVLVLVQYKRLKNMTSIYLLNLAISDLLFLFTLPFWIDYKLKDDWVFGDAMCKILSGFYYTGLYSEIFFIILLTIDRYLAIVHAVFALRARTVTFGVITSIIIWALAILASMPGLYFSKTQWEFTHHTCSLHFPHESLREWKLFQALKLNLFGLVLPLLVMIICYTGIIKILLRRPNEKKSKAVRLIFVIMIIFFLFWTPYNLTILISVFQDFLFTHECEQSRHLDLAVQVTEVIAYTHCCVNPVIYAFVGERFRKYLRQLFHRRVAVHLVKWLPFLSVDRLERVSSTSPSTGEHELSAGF
Chain of Beta-1 adrenergic receptor (Homo sapiens) (P08588 whole entry, looked up): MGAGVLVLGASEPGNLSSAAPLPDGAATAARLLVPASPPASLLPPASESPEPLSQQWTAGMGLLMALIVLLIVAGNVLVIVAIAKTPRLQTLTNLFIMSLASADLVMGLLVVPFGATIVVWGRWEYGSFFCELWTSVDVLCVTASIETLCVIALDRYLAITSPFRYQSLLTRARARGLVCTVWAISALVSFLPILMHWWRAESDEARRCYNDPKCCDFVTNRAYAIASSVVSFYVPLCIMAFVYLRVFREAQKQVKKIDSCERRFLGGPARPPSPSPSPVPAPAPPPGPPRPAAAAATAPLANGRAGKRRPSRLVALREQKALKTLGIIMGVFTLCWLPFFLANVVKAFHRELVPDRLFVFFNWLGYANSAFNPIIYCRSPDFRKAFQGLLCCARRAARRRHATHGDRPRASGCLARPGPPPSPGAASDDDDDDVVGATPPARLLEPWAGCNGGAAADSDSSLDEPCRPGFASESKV

CC(C)c1cc(N2CC[C@@H](N)C2)nc(N)n1
inactive: [1] -5% | [2] -2% | [3] < 10% | [4] < 10% | [5] < 10% | [6] < 10% | [7] 18% | [8] < 10% | [9] 10% | [10] < 10% | [11] < 10% | [12] < 10% | [13] < 10% | [14] 18% | [15] 15% | [16] < 10% | [17] < 10% | [18] < 10% | [19] < 10% | [20] < 10% | [21] < 10% | [22] < 10% | [23] < 10% | [24] 19% | [25] < 10% | [26] 64% | [27] < 10% | [28] < 10% | [29] < 10% | [30] < 10% | [31] < 10% | [32] < 10% | [33] < 10% | [34] < 10% | [35] < 10% | [36] < 10% | [37] < 10% | [38] < 10% | [39] < 10% | [40] < 10% | [41] < 10% | [42] < 10% | [43] < 10% | [44] < 10% | [45] < 10% | [46] < 10% | [47] < 10% | [48] < 10% | [49] < 10% | [50] < 10%

From ChEMBL document CHEMBL5058644, “Data for DCP probe JNJ-39758979” (2022)
